Measurements taken from article PMC4961458 (eLife, 2016).

What was measured:
WHIM20 tumors = format: in vivo, mice; conditions: no E2 pellets; GDC-0810 100 mg/kg/day; tamoxifen 60 mg/kg/day; fulvestrant 50 mg/kg days 1, 3 and 7, 25 mg/kg weekly thereafter; 35 days
Text: Figure 8. […] (B) Gene expression analysis of WHIM20 tumors after 4 days of dosing, harvested 8 hr after the final dose. […] (E) WHIM20 tumors were implanted in mice without supplemental 17β-estradiol pellets.
The WHIM20 patient derived xenograft model (WHIM20) was established via direct implantation of metastatic tumor material into immune compromised mice at Washington University in St. Louis ([Li et al., 2013]).
Tumors were established from fragments obtained from Washington University by subcutaneous implantation via 10G trocar into the right flank of 6–7 week old female NOD.CB17-Prkdc^scid/NcrCrl mice (Charles River Laboratories) and NOD.Cg-Prkdc^scid Il2rg^tm1Wjl/SzJ mice (Jackson Laboratories). Tumor line was propagated by serial transplantation. Animals were ovariectomized prior to initiation of treatment.

uterus of juvenile rats = experiment: Juvenile rat uterus assays; format: in vivo, Sprague Dawley rats; conditions: fulvestrant 50 mg/kg
Text: […] Rats were euthanized 4 hr after the final dose. Uteri were then dissected, weighed and fixed for histological examination. A small portion of tissue was saved prior to fixation for mRNA isolation and gene expression analysis.
H&E stained sections from bilateral representative uterine horn cross-sections were examined from two animals treated with the compounds shown. Endometrial cell height was digitally measured from the basement membrane to the apical (luminal) surface (orange line), using a digitally scanned image at 20X magnification. Obliquely cut areas were avoided. Three digital measurements were taken from each section (n = 6).
Estrogen receptor was detected using the mouse monoclonal anti-ER (clone 1D5, Dako), incubated for 60 min at RT at a dilution of 0.5 µg/ml, and visualized after secondary rabbit anti-mouse antibody binding with Powervision DAB (Leica Powersystems). H-scores were estimated manually, incorporating both intensity and percentage of positive nuclei, using the following formula: (0 x% negative)+(1 x% weak)+(2 x% moderate)+(3 x% strong)

[1] = test system: HCI-003 patient derived xenograft tumors; experiment: HCI-003 patient derived xenograft efficacy; format: in vivo, mice; conditions: tamoxifen 60 mg/kg/day orally; fulvestrant 200 mg/kg 3x/week; 38 days
Text: Like MCF7, HCI-003 tumors are ER+, E2 dependent and tamoxifen sensitive (Figure 4—figure supplement 1C). […] Lack of efficacy in this ER-negative model is consistent with the GDC-0810 mechanism of action being selectively mediated through ER.
The HCI-003 model was established at the University of Utah, Huntsman Cancer Center via direct implantation of both primary tumor material into immune compromised mice ([DeRose et al., 2011]). HCI-003 is wild-type at the ESR1 ligand binding domain. Exogenous estradiol is required for robust growth of this patient derived tumor line, and is supplied in the form of estradiol impregnated beeswax pellets. Tumor fragments obtained from the Huntsman Cancer Center were surgically implanted into the cleared mammary fat pad of 19 day old female NOD.CB17-Prkdc^scid/NcrCrl mice (Charles River Laboratories). The right mammary fat pad of recipient animals was exposed by a 1 cm incision on the ventral mid-line at the level of the fourth mammary. The blood vessels were cauterized and the fat pad blunt dissected from the abdominal wall and skin. Tumor fragments were excised from donor animals, chopped into fragments approximately 8 mm^3 (2 × 2 × 2 mm), implanted in the region of the cleared mammary fat pad, and the incision was closed with wound clips. Estradiol impregnated beeswax pellets were implanted subcutaneously into the interscapular space of recipient animals on the day of tumor implant. Recipient animals were ovariectomized 19 days after tumor fragment implant. One group of animals was designated as a control for estradiol independent tumor growth (Vehicle-E2) and the estradiol impregnated pellets were excised on the first day of dosing. All mice were housed and maintained according to the animal-use guidelines of the Institutional Animal Care and Use Committee (IACUC), conforming to California State legal and ethical practices.

TamR1 tumors = experiment: Tamoxifen-resistant MCF7 (TamR1) xenograft efficacy; format: in vivo, mice; conditions: 0.18 mg 60 day E2 pellets; tamoxifen 120 mg/kg/day p.o.; fulvestrant 200 mg/kg 3x/week s.c.; GDC-0810 10, 30 or 100 mg/kg/day p.o.; 27 days
Method: We previously generated a tamoxifen-resistant xenograft model, TamR1, by chronically treating MCF7 tumor bearing mice with tamoxifen until a resistant tumor emerged ([Lai et al., 2015]). […] These experiments were conducted in mice with relatively high levels of circulating estradiol, with estradiol being delivered via 0.72 mg 60 day release E2 pellets that are reported by the manufacturer (Innovative Research) to deliver between 300 and 400 pg/ml estradiol. Under these conditions the high E2 reduces the steady state ERα protein levels, thus confounding the readout of ERα protein as a pharmacodynamic endpoint (Figure 5—figure supplement 1). […] These pellets are sufficient to support tumor growth but only modestly reduce ERα levels (Figure 5—figure supplement 1).
Figure 5. […] (A) Tamoxifen-resistant MCF7 tumors were implanted in animals supplemented with 60-day release 0.18 mg 17β-estradiol pellets. […] S.c. is sub-cutaneous dosing, and p.o. is per os (by mouth) oral gavage dosing. * Denotes significance (p<0.05) compared to Vehicle in 1-Way ANOVA and Dunnett's Multiple Comparison Test. Figure 5—figure supplement 1. Effects of estradiol pellet on ERα levels in MCF7-TamR1 xenograft tumors. TamR1 tumor fragments were implanted into Crl:NU-Foxn1^nu mice implanted with either 0.72 or 0.18 mg/60 day 17-β estradiol pellets. Once tumors were established pellets were removed from 1 group. 28 days after pellet removal ERα protein levels were determined for 4 tumors from each group. Data is presented as average compared to Vehicle (-E2). Error is standard deviation. * Denotes significance (p<0.05) compared to Vehicle (-E2) by T-test. [drawing 7] […] (A) ERα protein levels were determined by western blot analysis of tumors 8 hr following the final compound treatment on day 27. […] KI-67 expression, quantified from IHC analysis. […]
The tamoxifen-resistant derivative of the ER+ human tumor cell line, MCF7 (TamR1) was developed by Seragon Pharmaceuticals, Inc ([Lai et al., 2015]). […] The tumors which continued to grow under these conditions were serially passaged and evaluated for continued tamoxifen resistance. […]

## CC/C(=C(\c1ccccc1)c1ccc(OCCN(C)C)cc1)c1ccccc1 [Tamoxifen]
WHIM20 tumors
  Tumor growth response, WHIM20 PDX: induced tumor stasis
Uterus of juvenile rats; tamoxifen 60 mg/kg orally once a day for 3 days, GDC-0810 0.1 or 10 mg/kg, relative to vehicle control
  Uterine wet weight: increases uterine wet weight
Uterus of juvenile rats; tamoxifen 60 mg/kg, GDC-0810 0.1 and 10 mg/kg
  Endometrial epithelial cell morphology (histology, endometrial cell height): induced a cuboidal to columnar morphological change
[1]
  Anti-tumor activity, HCI-003 PDX (Figure 4—figure supplement 1C): display anti-tumor activity
TamR1 tumors
  Tumor growth response, TamR1 xenograft, lower E2: stimulated tumor growth
